Measured values taken from patent publication US11040066B2, “Topical composition for use in the treatment of burns” (Safeguard Medical Holdco, LLC, priority 2017, dated 2021).

Test: Gamma radiation resistance of gel formulas (Rounds 1-5)
Assay type: physicochemical
Settings: Round 1; summary in words
Description: Following several failed attempts to formulate a composition with suitable viscosity and other properties to function as a burn treatment, the Inventors obtained stable compositions which were sent for testing to assess stability under gamma radiation.
OVERVIEW: To incorporate: Polyaminopropyl biguanide (INCI name); Chemical name: Polyhexamethylene Biguanide Hydrochloride (PHMB) and later Oriel sea mineral complex into a gel formula that can withstand the impact of gamma radiation sterilisation.
5 rounds of formulas were sent out for gamma radiations as outlined below.
Round 1 Summary: Started with our current BD (Burn Dressing) Gel with hyaluronic acid (HA) formula to which various ingredients were added.
Carbopol is the thickening agent used in BD Gel with HA, the only experiment in round 1 to which PHMB was added.
Round 2 Summary: Since PHMB was incompatible with Carbopol, new formulas containing various other thickeners were tried. Since propylene glycol, a humectant helped, another humectant (propanediol) was tried. For all the experimental batches made, only the stable formulas were sent out for gamma radiation. Only some of round 2 formulas contain PHMB (20% solution) @0.2% […]
In round 5, the final formula was determined from a selection of which were sent out for gamma radiation with acceptable results. […]

CC(O)CO (stereo not shown) [propylene glycol, 1,2-Propanediol]
Change following gamma radiation: little or no change
